pIC50, pKd: −log10 of the molar value. Like-named read-outs stand apart in the source and are kept apart here. *1 amine or outer side, *2 acyl side, *3 side chain or, on linkers, in order; H or OH if unused. Where a SMILES comes first, the peptide text is derived from it. Bridges are numbered along the chain shown (N, C = ends). [ ]: non-standard residue; d: D form. The star is where a group is joined. hPhe(3,5-F2-4-CF3) = N[C@@H](CCc1cc(F)c(C(F)(F)F)c(F)c1)C(=O)O; hPhe(3-Cl-4-CF3) = N[C@@H](CCc1ccc(C(F)(F)F)c(Cl)c1)C(=O)O; NPrPhe(4-CF3) = CCCN[C@@H](Cc1ccc(C(F)(F)F)cc1)C(=O)O; NMeGly(cPent) = CN[C@H](C(=O)O)C1CCCC1; NMeD = CN[C@@H](CC(=O)O)C(=O)O; X1 = O=C(CN(CC(F)F)[*:1])[*:2]; NMeL = CN[C@@H](CC(C)C)C(=O)O; αMeL = CC(C)C[C@](C)(N)C(=O)O; αMeV = CC(C)[C@](C)(N)C(=O)O; αMeS = C[C@](N)(CO)C(=O)O; Morpholide = C1CN(*)CCO1; Ac5c = NC1(C(=O)O)CCCC1; Sar = CNCC(=O)O; tBu = CC(C)(C)*
Columns and labels:
[1] = biological target: GDP-bound KRAS wild-type protein (Homo sapiens, UniProt P01116); test: Binding to KRAS by surface plasmon resonance (SPR), Single Cycle Kinetics; details: GDP-bound KRAS wild-type protein, read-out: KRAS KD
[2] = biological target: GDP-bound NRAS wild-type protein (Homo sapiens, UniProt P01111); test: Binding to NRAS by surface plasmon resonance (SPR), Single Cycle Kinetics; details: SPR, GDP-bound NRAS wild-type protein vs GDP-bound KRAS wild-type protein
[3] = biological target: GDP-bound HRAS wild-type protein (Homo sapiens, UniProt P01112); test: Binding to HRAS by surface plasmon resonance (SPR), Single Cycle Kinetics; details: SPR, GDP-bound HRAS wild-type protein vs GDP-bound KRAS wild-type protein
[4] = test system: human lung cancer strain NCI-H441;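 note: cell proliferation inhibition after four days measured by CellTiter-Glo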
[5] = SPR Single Cycle Kinetics, 1:1 binding model

Chain of GDP-bound NRAS wild-type protein (P01111 whole entry): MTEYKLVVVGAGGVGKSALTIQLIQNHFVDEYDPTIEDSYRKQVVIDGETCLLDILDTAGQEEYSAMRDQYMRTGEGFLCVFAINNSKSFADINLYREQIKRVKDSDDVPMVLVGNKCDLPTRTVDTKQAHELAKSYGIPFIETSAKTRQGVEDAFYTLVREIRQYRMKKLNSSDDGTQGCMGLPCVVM
Chain of GDP-bound KRAS wild-type protein (P01116 whole entry): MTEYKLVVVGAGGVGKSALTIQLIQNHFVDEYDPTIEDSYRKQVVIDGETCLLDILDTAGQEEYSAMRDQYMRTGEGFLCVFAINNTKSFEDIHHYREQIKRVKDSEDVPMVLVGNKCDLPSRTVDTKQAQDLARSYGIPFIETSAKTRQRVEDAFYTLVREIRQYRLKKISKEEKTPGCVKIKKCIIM
Chain of GDP-bound HRAS wild-type protein (P01112 whole entry): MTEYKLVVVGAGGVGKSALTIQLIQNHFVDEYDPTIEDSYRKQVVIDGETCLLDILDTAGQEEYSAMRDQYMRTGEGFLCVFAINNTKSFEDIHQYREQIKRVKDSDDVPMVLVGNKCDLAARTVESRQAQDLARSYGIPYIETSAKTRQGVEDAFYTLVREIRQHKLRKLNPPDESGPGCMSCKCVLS

| SMILES | pKd [1, 5] | NRAS/KRAS (ratio of KD value with respect to NRAS to KD value with respect to KRAS) [2] | HRAS/KRAS (ratio of KD value with respect to HRAS to KD value with respect to KRAS) [3] | pIC50 [4] | pKd ([1]; SPR, Single Cycle Kinetics) | NRAS/KRAS (ratio of KD value for NRAS to KD value for KRAS) [2] | HRAS/KRAS (ratio of KD value for HRAS to KD value for KRAS) [3] |
| --- | --- | --- | --- | --- | --- | --- | --- |
| CC[C@H](C)[C@@H]1NC(=O)[C@H](CC(C)C)N(C)C(=O)C[C@@H](C(=O)N2CCOCC2)N(C)C(=O)[C@H](C2CCCC2)N(C)C(=O)C2(CCCC2)NC(=O)[C@@H]2[C@@H](O)CCN2C(=O)[C@H](CCc2cc(F)c(C(F)(F)F)c(F)c2)NC(=O)CN(C)C(=O)[C@H](Cc2ccc(C(F)(F)F)cc2)N2CCCC[C@@H](C2=O)N(C)C(=O)CN(C)C1=O [PP0558] | 10.17 | B (a compound having 3 or more and less than 10 is denoted as B) | B (a compound having 3 or more and less than 10 is denoted as B) | 7.50 | – | – | – |
| CC[C@H](C)[C@@H]1NC(=O)[C@@H]2CCCCCN2C(=O)C[C@@H](C(=O)N2CCOCC2)N(C)C(=O)[C@H](C2CCCC2)N(C)C(=O)C2(CCCC2)NC(=O)[C@@H]2CCCN2C(=O)[C@H](CCc2cc(F)c(C(F)(F)F)c(F)c2)NC(=O)CN(C)C(=O)[C@H](Cc2ccc(C(F)(F)F)cc2)N2CCCC[C@@H](C2=O)N(C)C(=O)CN(C)C1=O [PP0595] | 9.00 | C (A compound having a KD ratio of 0.1 or more and less than 3 is denoted as C) | B (a compound having 3 or more and less than 10 is denoted as B) | 7.10 | – | – | – |
| CCO[C@@H]1C[C@H]2C(=O)NC3(CCC3)C(=O)N(C)[C@@H](C3CCCC3)C(=O)N(CCC3CCCC3)[C@H](C(=O)N(C)C)CC(=O)N(C)[C@@H](CC)C(=O)N[C@@H]([C@@H](C)CC)C(=O)N(C)CC(=O)N(C)[C@H]3CCCCN(C3=O)[C@@H](Cc3ccc(C(F)(F)F)cc3)C(=O)N(C)CC(=O)N[C@@H](CCc3cc(F)c(C(F)(F)F)c(F)c3)C(=O)N2C1 [PP0646] | 9.85 | C (A compound having a KD ratio of 0.1 or more and less than 3 is denoted as C) | B (a compound having 3 or more and less than 10 is denoted as B) | 7.77 | – | – | – |
| CCO[C@@H]1C[C@H]2C(=O)NC3(CCC3)C(=O)N(C)[C@@H](C3CCCC3)C(=O)N(CCc3ccccc3)[C@H](C(=O)N3CCOCC3)CC(=O)N(C)[C@@H](CC(C)C)C(=O)N[C@@H]([C@@H](C)CC)C(=O)N(C)CC(=O)N(C)[C@H]3CCCCN(C3=O)[C@@H](Cc3ccc(C(F)(F)F)cc3)C(=O)N(C)CC(=O)N[C@@H](CCc3cc(F)c(C(F)(F)F)c(F)c3)C(=O)N2C1 [PP0652] | 8.60 | B (a compound having 3 or more and less than 10 is denoted as B) | B (a compound having 3 or more and less than 10 is denoted as B) | 6.68 | – | – | – |
| CCO[C@@H]1C[C@H]2C(=O)NC3(CCC3)C(=O)N(C)[C@@H](C3CCCC3)C(=O)N(C)[C@H](C(=O)N3CCOCC3)CC(=O)N(C)C(C)(C)C(=O)N[C@@H]([C@@H](C)CC)C(=O)N(C)CC(=O)N(C)[C@H]3CCCCN(C3=O)[C@@H](Cc3ccc(C(F)(F)F)cc3)C(=O)N(C)CC(=O)N[C@@H](CCc3cc(F)c(C(F)(F)F)c(F)c3)C(=O)N2C1 [PP0722] | 7.60 | C (A compound having a KD ratio of 0.1 or more and less than 3 is denoted as C) | B (a compound having 3 or more and less than 10 is denoted as B) | 5.59 | – | – | – |
| CCO[C@@H]1C[C@H]2C(=O)NC3(CC=CC3)C(=O)N(C)[C@@H](C3CCCC3)C(=O)N(C)[C@H](C(=O)N(C)C)CC(=O)N(C)[C@@H](C)C(=O)N[C@@H]([C@@H](C)CC)C(=O)N(C)CC(=O)N(C)[C@H]3CCCCCN(C3=O)[C@@H](Cc3ccc(C(F)(F)F)cc3)C(=O)N(C)CC(=O)N[C@@H](CCc3cc(F)c(C(F)(F)F)c(F)c3)C(=O)N2C1 [PP0724] | 9.36 | B (a compound having 3 or more and less than 10 is denoted as B) | B (a compound having 3 or more and less than 10 is denoted as B) | 6.90 | – | – | – |
| CCCN1C(=O)CN(C)C(=O)CN(CC(F)F)C(=O)[C@H]([C@@H](C)CC)NC(=O)[C@H](CC(C)C)N(C)C(=O)C[C@@H](C(=O)N2CCOCC2)N(C)C(=O)[C@H](C2CCCC2)N(C)C(=O)C2(CCCC2)NC(=O)[C@@H]2CCCN2C(=O)[C@H](CCc2ccc(C(F)(F)F)c(Cl)c2)NC(=O)CN(C)C(=O)[C@@H]1Cc1ccc(C(F)(F)F)cc1 [PP0752] ([NMeL]I[X1][Sar][NPrPhe(4-CF3)][Sar][hPhe(3-Cl-4-CF3)]P[Ac5c][NMeGly(cPent)][NMeD]-Morpholide; lactam N-11) | 9.27 | B (a compound having 3 or more and less than 10 is denoted as B) | B (a compound having 3 or more and less than 10 is denoted as B) | 7.59 | – | – | – |
| CCCN1C(=O)CN(C)C(=O)CN(C)C(=O)[C@H]([C@@H](C)CC)NC(=O)[C@H](CC(C)C)N(C)C(=O)C[C@@H](C(=O)N2CCOCC2)N(C)C(=O)[C@H](C2CCCC2)N(C)C(=O)[C@](C)(C(C)C)NC(=O)[C@@H]2CCCN2C(=O)[C@H](CCc2cc(F)c(C(F)(F)F)c(F)c2)NC(=O)CN(C)C(=O)[C@@H]1Cc1ccc(C(F)(F)F)cc1 [PP0756] ([NMeL]I[Sar][Sar][NPrPhe(4-CF3)][Sar][hPhe(3,5-F2-4-CF3)]P[αMeV][NMeGly(cPent)][NMeD]-Morpholide; lactam N-11) | 9.06 | B (a compound having 3 or more and less than 10 is denoted as B) | B (a compound having 3 or more and less than 10 is denoted as B) | 7.16 | – | – | – |
| CCCN1C(=O)CN(C)C(=O)CN(C)C(=O)[C@H]([C@@H](C)CC)NC(=O)[C@H](CC(C)C)N(C)C(=O)C[C@@H](C(=O)N2CCOCC2)N(C)C(=O)[C@H](C2CCCC2)N(C)C(=O)[C@](C)(CC(C)C)NC(=O)[C@@H]2CCCN2C(=O)[C@H](CCc2cc(F)c(C(F)(F)F)c(F)c2)NC(=O)CN(C)C(=O)[C@@H]1Cc1ccc(C(F)(F)F)cc1 [PP0759] ([NMeL]I[Sar][Sar][NPrPhe(4-CF3)][Sar][hPhe(3,5-F2-4-CF3)]P[αMeL][NMeGly(cPent)][NMeD]-Morpholide; lactam N-11) | 8.57 | B (a compound having 3 or more and less than 10 is denoted as B) | B (a compound having 3 or more and less than 10 is denoted as B) | 6.73 | – | – | – |
| CCCN1C(=O)CN(C)C(=O)CN(C)C(=O)[C@H]([C@@H](C)CC)NC(=O)[C@H](CC(C)C)N(C)C(=O)C[C@@H](C(=O)N2CCOCC2)N(C)C(=O)[C@H](C2CCCC2)N(C)C(=O)[C@](C)(COC)NC(=O)[C@@H]2CCCN2C(=O)[C@H](CCc2cc(F)c(C(F)(F)F)c(F)c2)NC(=O)CN(C)C(=O)[C@@H]1Cc1ccc(C(F)(F)F)cc1 [PP0762] ([NMeL]I[Sar][Sar][NPrPhe(4-CF3)][Sar][hPhe(3,5-F2-4-CF3)]P[αMeS](Me)[NMeGly(cPent)][NMeD]-Morpholide; lactam N-11) | 9.14 | B (a compound having 3 or more and less than 10 is denoted as B) | B (a compound having 3 or more and less than 10 is denoted as B) | 7.52 | – | – | – |
| CCCN1C(=O)CN(C)C(=O)CN(C)C(=O)[C@H]([C@@H](C)CC)NC(=O)[C@H](CC(C)C)N(C)C(=O)C[C@@H](C(=O)N2CCOCC2)N(C)C(=O)[C@H](C2CCCC2)N(C)C(=O)[C@](C)(COC(C)(C)C)NC(=O)[C@@H]2CCCN2C(=O)[C@H](CCc2cc(F)c(C(F)(F)F)c(F)c2)NC(=O)CN(C)C(=O)[C@@H]1Cc1ccc(C(F)(F)F)cc1 [PP0764] ([NMeL]I[Sar][Sar][NPrPhe(4-CF3)][Sar][hPhe(3,5-F2-4-CF3)]P[αMeS](tBu)[NMeGly(cPent)][NMeD]-Morpholide; lactam N-11) | 8.47 | B (a compound having 3 or more and less than 10 is denoted as B) | B (a compound having 3 or more and less than 10 is denoted as B) | 6.67 | – | – | – |
| CC[C@H](C)[C@@H]1NC(=O)[C@H](COC)N(C)C(=O)C[C@@H](C(=O)N2CCOCC2)N(C)C(=O)[C@H](C2CCCC2)N(C)C(=O)C2(CCC2)NC(=O)[C@@H]2CCCN2C(=O)[C@H](CCc2cc(F)c(C(F)(F)F)c(F)c2)NC(=O)CN(C)C(=O)[C@H](Cc2ccc(C(F)(F)F)cc2)N2CCCCC[C@@H](C2=O)N(C)C(=O)CNC1=O [PP0860] | – | – | – | 6.85 | 8.96 | B (a compound having 3 or more and less than 10 is denoted as B) | B (a compound having 3 or more and less than 10 is denoted as B) |
